Reference: patent publication US20140120083A1, “TREATMENT OF CANCERS USING PI3 KINASE ISOFORM MODULATORS” (INFINITY PHARMACEUTICALS, INC., priority 2012, published 2014)
“And” between values parts separate entries of the source, which are not always exact repeats. Equal values may be shown once.

Key:
Type in all cases: biochemical
[1] = molecular target: PI3K δ (Homo sapiens, UniProt O00329); assay: In vitro IC50, PI3K δ; parameters: purchased Upstate
Text: (§1) An exemplary system is PI 3-Kinase (human) HTRF™ Assay from Upstate.

[2] = molecular target: T1, PI3K α (Homo sapiens, UniProt P42336); assay: In vitro IC50, PI3K α
T1 construct: purchased Upstate
T1 sequence (P42336 whole entry): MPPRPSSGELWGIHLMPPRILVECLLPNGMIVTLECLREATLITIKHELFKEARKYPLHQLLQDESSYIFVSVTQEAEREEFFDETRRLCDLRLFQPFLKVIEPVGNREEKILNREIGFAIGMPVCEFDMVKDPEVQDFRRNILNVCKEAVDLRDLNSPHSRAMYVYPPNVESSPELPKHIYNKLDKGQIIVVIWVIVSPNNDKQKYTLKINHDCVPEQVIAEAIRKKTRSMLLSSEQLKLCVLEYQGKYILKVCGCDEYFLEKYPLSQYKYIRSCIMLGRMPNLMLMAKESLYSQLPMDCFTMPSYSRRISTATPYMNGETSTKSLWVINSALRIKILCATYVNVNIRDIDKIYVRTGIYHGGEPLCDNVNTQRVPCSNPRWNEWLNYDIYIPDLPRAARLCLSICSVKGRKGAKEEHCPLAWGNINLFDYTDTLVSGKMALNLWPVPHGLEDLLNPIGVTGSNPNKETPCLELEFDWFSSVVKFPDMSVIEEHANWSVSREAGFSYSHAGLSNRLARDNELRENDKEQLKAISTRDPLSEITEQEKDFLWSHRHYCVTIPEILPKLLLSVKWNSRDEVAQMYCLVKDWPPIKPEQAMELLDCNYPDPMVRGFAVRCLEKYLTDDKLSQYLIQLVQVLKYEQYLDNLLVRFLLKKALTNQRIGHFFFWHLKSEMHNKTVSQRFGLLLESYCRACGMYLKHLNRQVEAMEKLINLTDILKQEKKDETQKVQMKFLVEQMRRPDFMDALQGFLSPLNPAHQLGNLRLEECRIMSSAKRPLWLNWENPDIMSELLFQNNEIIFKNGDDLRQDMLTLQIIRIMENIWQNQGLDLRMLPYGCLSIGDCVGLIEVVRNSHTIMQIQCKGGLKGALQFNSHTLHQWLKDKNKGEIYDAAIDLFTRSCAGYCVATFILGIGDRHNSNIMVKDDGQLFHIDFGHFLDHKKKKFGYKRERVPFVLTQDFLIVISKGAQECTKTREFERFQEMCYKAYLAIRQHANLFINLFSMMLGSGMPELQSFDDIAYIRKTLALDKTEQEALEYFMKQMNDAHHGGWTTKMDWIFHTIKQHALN
T1 sequence (P27986 whole entry partner): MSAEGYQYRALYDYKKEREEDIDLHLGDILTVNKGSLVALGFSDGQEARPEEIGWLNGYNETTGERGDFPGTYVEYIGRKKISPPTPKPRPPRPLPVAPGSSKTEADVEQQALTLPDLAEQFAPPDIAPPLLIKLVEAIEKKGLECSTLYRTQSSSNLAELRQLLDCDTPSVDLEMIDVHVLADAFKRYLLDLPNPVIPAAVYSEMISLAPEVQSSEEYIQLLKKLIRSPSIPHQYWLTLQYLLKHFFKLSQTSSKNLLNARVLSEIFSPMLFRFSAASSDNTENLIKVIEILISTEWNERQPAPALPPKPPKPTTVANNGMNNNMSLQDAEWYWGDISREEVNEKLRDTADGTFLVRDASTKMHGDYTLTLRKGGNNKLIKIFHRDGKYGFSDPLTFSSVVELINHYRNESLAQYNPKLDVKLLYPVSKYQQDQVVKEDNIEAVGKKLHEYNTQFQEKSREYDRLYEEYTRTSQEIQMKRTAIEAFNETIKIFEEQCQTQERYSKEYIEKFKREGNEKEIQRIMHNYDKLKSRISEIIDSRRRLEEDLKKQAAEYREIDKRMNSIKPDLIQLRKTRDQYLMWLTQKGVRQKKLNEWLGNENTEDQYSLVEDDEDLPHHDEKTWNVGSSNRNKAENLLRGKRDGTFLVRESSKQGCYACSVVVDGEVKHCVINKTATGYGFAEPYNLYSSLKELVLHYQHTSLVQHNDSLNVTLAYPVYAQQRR
Text: as §1

[3] = molecular target: PI3K β (Homo sapiens, UniProt P42338); assay: In vitro IC50, PI3K β
Sequence of PI3K β (P42338 whole entry): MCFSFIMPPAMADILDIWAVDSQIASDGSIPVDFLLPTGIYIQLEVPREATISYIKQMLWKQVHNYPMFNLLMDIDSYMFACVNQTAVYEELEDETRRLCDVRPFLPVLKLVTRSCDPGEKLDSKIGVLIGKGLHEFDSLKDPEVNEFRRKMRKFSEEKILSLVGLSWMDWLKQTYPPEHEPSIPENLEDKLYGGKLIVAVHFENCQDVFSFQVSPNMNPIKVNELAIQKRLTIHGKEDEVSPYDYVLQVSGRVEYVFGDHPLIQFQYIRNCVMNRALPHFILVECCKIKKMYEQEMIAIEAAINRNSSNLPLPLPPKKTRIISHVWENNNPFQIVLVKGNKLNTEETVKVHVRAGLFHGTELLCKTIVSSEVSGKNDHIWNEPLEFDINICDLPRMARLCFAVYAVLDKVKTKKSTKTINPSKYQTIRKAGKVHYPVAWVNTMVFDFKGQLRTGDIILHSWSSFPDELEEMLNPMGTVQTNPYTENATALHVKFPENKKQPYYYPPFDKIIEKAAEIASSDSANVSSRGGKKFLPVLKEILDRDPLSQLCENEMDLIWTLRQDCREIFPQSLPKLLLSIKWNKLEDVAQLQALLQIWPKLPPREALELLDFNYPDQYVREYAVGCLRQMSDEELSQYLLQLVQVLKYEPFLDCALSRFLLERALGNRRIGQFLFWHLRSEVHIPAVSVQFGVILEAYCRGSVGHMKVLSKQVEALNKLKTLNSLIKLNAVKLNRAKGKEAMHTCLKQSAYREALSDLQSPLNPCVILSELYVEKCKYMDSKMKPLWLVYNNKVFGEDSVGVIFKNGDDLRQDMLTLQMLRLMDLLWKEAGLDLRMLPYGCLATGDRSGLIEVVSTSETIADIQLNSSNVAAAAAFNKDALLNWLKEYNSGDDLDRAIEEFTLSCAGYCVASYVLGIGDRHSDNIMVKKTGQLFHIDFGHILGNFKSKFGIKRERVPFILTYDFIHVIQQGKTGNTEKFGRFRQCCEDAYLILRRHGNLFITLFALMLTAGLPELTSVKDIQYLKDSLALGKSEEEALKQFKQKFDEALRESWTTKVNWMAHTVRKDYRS
Text: as §1

[4] = molecular target: T2, PI3K γ (Homo sapiens, UniProt P48736); assay: In vitro IC50, PI3K γ
T2 construct: purchased Sigma
T2 sequence (P48736 whole entry): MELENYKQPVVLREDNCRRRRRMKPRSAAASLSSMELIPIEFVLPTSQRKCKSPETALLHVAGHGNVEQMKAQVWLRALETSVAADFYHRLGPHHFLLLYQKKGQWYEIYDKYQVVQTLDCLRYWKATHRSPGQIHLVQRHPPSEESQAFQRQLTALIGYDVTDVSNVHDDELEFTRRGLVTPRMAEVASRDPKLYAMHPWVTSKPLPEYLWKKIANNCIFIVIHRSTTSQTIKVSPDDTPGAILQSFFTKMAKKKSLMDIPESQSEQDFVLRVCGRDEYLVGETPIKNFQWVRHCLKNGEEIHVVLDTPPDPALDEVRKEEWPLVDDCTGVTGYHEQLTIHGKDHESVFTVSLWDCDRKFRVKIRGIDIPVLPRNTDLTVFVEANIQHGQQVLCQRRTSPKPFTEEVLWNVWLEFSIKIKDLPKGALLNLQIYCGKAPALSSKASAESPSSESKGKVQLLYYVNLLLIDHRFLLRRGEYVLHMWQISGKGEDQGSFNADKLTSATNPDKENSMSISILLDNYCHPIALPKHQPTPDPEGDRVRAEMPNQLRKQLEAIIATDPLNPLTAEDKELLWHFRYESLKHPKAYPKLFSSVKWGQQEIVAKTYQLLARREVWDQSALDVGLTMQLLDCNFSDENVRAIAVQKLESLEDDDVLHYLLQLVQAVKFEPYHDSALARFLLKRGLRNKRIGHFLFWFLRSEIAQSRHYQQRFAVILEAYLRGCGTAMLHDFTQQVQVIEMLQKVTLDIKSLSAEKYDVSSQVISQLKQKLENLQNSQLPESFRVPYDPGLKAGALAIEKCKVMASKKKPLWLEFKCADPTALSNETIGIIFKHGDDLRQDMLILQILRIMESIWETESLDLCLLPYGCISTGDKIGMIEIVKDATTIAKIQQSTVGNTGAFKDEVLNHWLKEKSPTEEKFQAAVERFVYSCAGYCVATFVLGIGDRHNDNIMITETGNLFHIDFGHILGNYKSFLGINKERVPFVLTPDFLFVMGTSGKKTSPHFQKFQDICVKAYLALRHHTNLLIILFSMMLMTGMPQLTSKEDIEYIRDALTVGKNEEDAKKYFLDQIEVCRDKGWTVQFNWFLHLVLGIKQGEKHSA
Text: as §1

Sequence of PI3K δ (O00329 whole entry): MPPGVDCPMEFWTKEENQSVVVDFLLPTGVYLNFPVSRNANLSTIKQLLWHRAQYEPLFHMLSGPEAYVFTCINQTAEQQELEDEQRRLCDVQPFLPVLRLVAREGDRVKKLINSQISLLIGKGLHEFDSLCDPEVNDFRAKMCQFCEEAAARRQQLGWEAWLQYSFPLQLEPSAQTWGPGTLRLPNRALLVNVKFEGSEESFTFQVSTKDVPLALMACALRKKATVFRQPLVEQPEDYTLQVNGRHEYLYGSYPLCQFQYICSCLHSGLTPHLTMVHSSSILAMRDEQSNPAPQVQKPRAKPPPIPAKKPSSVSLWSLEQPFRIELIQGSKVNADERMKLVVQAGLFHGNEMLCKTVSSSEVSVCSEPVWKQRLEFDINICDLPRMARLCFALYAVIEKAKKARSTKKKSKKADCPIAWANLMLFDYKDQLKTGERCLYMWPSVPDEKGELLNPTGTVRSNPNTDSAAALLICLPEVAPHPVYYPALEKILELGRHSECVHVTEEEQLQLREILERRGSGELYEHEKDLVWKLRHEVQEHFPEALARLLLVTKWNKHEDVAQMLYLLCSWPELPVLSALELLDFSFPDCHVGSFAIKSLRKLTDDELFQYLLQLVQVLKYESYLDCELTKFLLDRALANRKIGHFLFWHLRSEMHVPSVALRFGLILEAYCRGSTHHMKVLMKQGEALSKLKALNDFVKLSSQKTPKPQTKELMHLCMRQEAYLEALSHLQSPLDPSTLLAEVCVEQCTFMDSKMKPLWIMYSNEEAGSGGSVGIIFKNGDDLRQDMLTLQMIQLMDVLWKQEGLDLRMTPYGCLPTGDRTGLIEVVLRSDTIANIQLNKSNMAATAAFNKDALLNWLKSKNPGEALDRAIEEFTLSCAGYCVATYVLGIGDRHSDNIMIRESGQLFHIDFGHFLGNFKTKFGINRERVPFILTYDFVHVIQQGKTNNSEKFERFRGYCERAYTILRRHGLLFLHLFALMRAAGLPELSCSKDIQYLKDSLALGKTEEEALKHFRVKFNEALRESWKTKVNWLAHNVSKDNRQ
Sequence of PI3K δ (P27986 whole entry partner): as the sequence (P27986 whole entry partner) above

SMILES | IC50 [1] [µM] | IC50 [2] [µM] | IC50 [3] [µM] | IC50 [4]
Cc1cccc2cc(Cn3nc(-c4cc(O)cc(F)c4)c4c(N)ncnc43)n(-c3ccccc3F)c(=O)c12 [Compound 3] | < 0.1 | < 10 | < 10 | < 0.1 µM
Cc1ccccc1-n1c(Cn2nc(-c3cc(O)cc(F)c3)c3c(N)ncnc32)cc2cccc(C)c2c1=O [Compound 7] | – | < 10 | < 1 | –
Cc1ccccc1-n1c(Cn2nc(-c3cccc(O)c3)c3c(N)ncnc32)cc2cccc(C)c2c1=O [Compound 13] | – | > 10 | < 10 | < 0.1 µM
Cc1cccc2cc(Cn3nc(-c4cccc(Cl)c4)c4c(N)ncnc43)n(-c3ccccc3F)c(=O)c12 [Compound 38] | < 10 | – | > 10 | > 10 µM and < 10 µM
CC(=O)Nc1nc2ccc(-c3nn(Cc4cc5cccc(C)c5c(=O)n4-c4ccccc4C)c4ncnc(N)c34)cc2s1 [Compound 53] | – | < 1 | < 10 | < 0.1 µM
Cc1ccccc1-n1c(Cn2nc(C#C[C@H](C)O)c3c(N)ncnc32)cc2cccc(C)c2c1=O [Compound 85] | < 1 | > 10 | < 10 | –
CC(=O)Nc1nc2ccc(-c3nn(Cc4cc5cccc(Cl)c5c(=O)n4C4CC4)c4ncnc(N)c34)cc2s1 [Compound 156] | < 0.1 | < 0.1 | < 0.1 | –
CC(=O)Nc1nc2ccc(-c3nn(Cc4cc5cccc(Cl)c5c(=O)n4C(C)C)c4ncnc(N)c34)cc2s1 [Compound 157] | < 0.1 | < 0.1 | < 0.1 | –
CC(=O)Nc1nc2ccc(-c3nn(Cc4cc5cccc(F)c5c(=O)n4C(C)C)c4ncnc(N)c34)cc2s1 [Compound 158] | < 0.1 | < 0.1 | < 10 | –
CC(=O)Nc1nc2ccc(-c3nn(Cc4cc5cccc(C)c5c(=O)n4C4CCC4)c4ncnc(N)c34)cc2s1 [Compound 159] | < 0.1 | < 0.1 | < 1 | –
Cc1ccccc1-n1c(Cn2nc(-c3cnn(CCO)c3)c3c(N)ncnc32)cc2cccc(C)c2c1=O [Compound 163] | – | > 10 | > 10 | < 1 µM
CC(=O)Nc1nc2ccc(-c3nn(Cc4cc5cccc(C)c5c(=O)n4-c4cccc(F)c4)c4ncnc(N)c34)cc2s1 [Compound 178] | < 0.1 | – | < 10 | < 0.1 µM
Cc1ccccc1-n1c(CN(C)c2ncnc3[nH]cnc23)cc2cccc(C)c2c1=O [Compound 184] | – | > 10 | > 10 | < 10 µM
Cc1cccc2cc([C@H](C)Nc3ncnc4[nH]cnc34)n(C3CC3)c(=O)c12 [Compound 200] | < 0.1 | – | < 0.1 | < 0.1 µM
CCC(Nc1ncnc2[nH]cnc12)c1cc2cccc(C)c2c(=O)n1-c1c(F)cccc1F (centres unmarked) [Compound 217] | < 10 | – | > 10 | –
Cc1cccc2cc([C@H](C)Nc3c(C#N)cnc4ccccc34)n(-c3ccccc3)c(=O)c12 [Compound 246] | < 10 | > 10 | – | < 10 µM
CNc1ncc(Cl)c(N[C@@H](C)c2cc3cccc(C)c3c(=O)n2-c2ccccc2)n1 [Compound 250] | < 1 | > 10 | – | < 1 µM
Cc1cccc2cc([C@H](C)Nc3ncnc4[nH]ncc34)n(-c3ccccc3)c(=O)c12 [Compound 258] | < 1 | > 10 | – | < 10 µM
CC(=O)Nc1nc2ccc(-c3nn(Cc4cc5cccc(C)c5c(=O)n4-c4ccccc4)c4ncnc(N)c34)cc2[nH]1 [Compound 304] | – | > 10 | > 10 | < 0.1 µM
CNC(=O)c1nn(Cc2cc3cccc(C)c3c(=O)n2-c2ccccc2)c2ncnc(N)c12 [Compound 309] | < 1 | > 10 | – | < 10 µM
Cc1ccccc1-n1c(Cn2nc(CF)c3c(N)ncnc32)cc2cccc(C)c2c1=O [Compound 310] | < 0.1 | – | > 10 | < 0.1 µM
Cc1cccc2cc(Cn3nc(CF)c4c(N)ncnc43)n(-c3ccccc3)c(=O)c12 [Compound 311] | < 0.1 | – | > 10 | < 0.1 µM
Cc1ccccc1-n1c(Cn2nc(CC#N)c3c(N)ncnc32)cc2cccc(C)c2c1=O [Compound 312] | < 0.1 | – | > 10 | < 10 µM
Cc1ccccc1-n1c(Cn2nc(CO)c3c(N)ncnc32)cc2cccc(C)c2c1=O [Compound 313] | < 1 | > 10 | – | < 10 µM
COCc1nn(Cc2cc3cccc(C)c3c(=O)n2-c2ccccc2C)c2ncnc(N)c12 [Compound 314] | > 10 | > 10 | – | > 10 µM
Cc1cccc2cc(Cn3nc(C(C)(C)O)c4c(N)ncnc43)n(-c3ccccc3)c(=O)c12 [Compound 318] | > 10 | > 10 | – | > 10 µM
CC(=O)c1nn(Cc2cc3cccc(C)c3c(=O)n2-c2ccccc2)c2ncnc(N)c12 [Compound 319] | < 1 | > 10 | – | < 10 µM

Further lines, results first:

IC50 [1] [µM] | IC50 [2] [µM] | IC50 [3] [µM] | IC50 [4] | SMILES
< 0.1 | – | < 10 | < 0.1 µM | Cc1cccc2cc(Cn3nc(I)c4c(N)ncnc43)n(-c3ccccc3C(C)C)c(=O)c12 [Compound 75]
< 0.1 | – | > 10 | < 1 µM | Cc1cccc2cc(Cn3nc(I)c4c(N)ncnc43)n(-c3ccccc3Cl)c(=O)c12 [Compound 76]
< 0.1 | – | < 10 | < 0.1 µM | CCc1ccccc1-n1c(Cn2nc(I)c3c(N)ncnc32)cc2cccc(C)c2c1=O [Compound 77]
< 0.1 | – | > 10 | < 1 µM | Cc1ccncc1-n1c(Cn2nc(I)c3c(N)ncnc32)cc2cccc(C)c2c1=O [Compound 78]
< 0.1 | > 10 | < 10 | – | Cc1cccc2cc(Cn3nc(-c4cc(O)cc(F)c4)c4c(N)ncnc43)n(C3CCCCC3)c(=O)c12 [Compound 110]
< 0.1 | > 10 | < 10 | – | Cc1cccc2cc(Cn3nc(-c4cccc(O)c4)c4c(N)ncnc43)n(C3CCCCC3)c(=O)c12 [Compound 111]
< 0.1 | > 10 | > 10 | – | Cc1cccc2cc(Cn3nc(C#C[C@@H](C)O)c4c(N)ncnc43)n(C3CCCCC3)c(=O)c12 [Compound 112]
< 0.1 | > 10 | < 10 | – | Cc1cccc2cc(Cn3nc(-c4cccc(O)c4)c4c(N)ncnc43)n(C3CCC3)c(=O)c12 [Compound 114]
< 0.1 | < 10 | < 10 | – | Cc1cccc2cc(Cn3nc(-c4cc(O)cc(F)c4)c4c(N)ncnc43)n(C3CCC3)c(=O)c12 [Compound 115]
< 0.1 | < 0.1 | < 1 | – | CC(=O)Nc1nc2ccc(-c3nn(Cc4cc5cccc(C)c5c(=O)n4C)c4ncnc(N)c34)cc2s1 [Compound 153]
< 0.1 | < 0.1 | < 10 | – | CC(=O)Nc1nc2ccc(-c3nn(Cc4cc5cccc(C)c5c(=O)n4C(C)C)c4ncnc(N)c34)cc2s1 [Compound 154]
< 0.1 | < 0.1 | < 0.1 | – | CC(=O)Nc1nc2ccc(-c3nn(Cc4cc5cccc(C)c5c(=O)n4C4CC4)c4ncnc(N)c34)cc2s1 [Compound 155]
